Read-outs that look alike come from different tables or passages of the source.
Tests used:
Drosophila OR47a = molecular target: T1, Drosophila OR47a (Drosophila melanogaster, UniProt P81921); assay: Calcium ion fluorescence (GCaMP6) assay, OR47a stable HEK293 cell line; format: cell-based; settings: for Average response: OR47a cell line, mean of biological replicates; for DF norm AVERAGE OR47a: normalized fluorescence change, values below 0.05 threshold given as 0
T1 construct: expressed in transfected cells
T1 sequence (P81921 1-385): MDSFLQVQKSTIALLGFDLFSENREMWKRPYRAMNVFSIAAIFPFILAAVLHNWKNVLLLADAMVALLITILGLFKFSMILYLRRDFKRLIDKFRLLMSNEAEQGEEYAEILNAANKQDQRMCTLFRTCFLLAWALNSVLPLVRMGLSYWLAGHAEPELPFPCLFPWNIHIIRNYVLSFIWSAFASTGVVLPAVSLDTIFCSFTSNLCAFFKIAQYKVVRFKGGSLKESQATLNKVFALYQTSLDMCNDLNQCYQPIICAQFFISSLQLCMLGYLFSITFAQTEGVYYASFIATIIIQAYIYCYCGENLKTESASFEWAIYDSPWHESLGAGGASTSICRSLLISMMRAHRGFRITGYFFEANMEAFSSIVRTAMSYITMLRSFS
T1 sequence (Q9VNB5 1-486 partner): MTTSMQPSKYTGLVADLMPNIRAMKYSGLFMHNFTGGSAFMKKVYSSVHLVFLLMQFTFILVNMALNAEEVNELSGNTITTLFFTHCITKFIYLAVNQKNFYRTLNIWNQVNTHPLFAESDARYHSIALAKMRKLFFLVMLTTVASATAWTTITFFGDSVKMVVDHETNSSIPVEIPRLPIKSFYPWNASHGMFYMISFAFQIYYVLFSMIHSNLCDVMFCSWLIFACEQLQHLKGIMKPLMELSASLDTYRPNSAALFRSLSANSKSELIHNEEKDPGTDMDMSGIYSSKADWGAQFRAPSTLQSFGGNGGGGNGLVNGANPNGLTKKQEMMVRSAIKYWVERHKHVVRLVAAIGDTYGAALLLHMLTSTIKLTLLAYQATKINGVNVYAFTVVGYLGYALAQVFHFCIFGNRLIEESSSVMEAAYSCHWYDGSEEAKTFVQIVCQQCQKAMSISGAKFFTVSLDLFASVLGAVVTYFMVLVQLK
Method: (§1) These VUAA1 normalized ∆F values were used to compare the different receptors and ligands.
(§2) The concentration-dependent effect of the reference ligands on their cognate cell lines was examined in more detail. Twelve different ligand concentrations were measured on each cell line in an overall 0.01 μM to 100 μM concentration range with 5 repetitions with three technical replicates each time.
(§3) Twelve thousand to 18,000 cells were plated into each well of a black wall, transparent bottom 384-well microplate (Greiner) 48 h or 72 h before the measurements and were simultaneously treated with 1 μg/mL doxycycline. […] The plate has 24 columns, thus we could record responses in up to eight different cell lines in each plate. On the day of the experiment, the growth medium was replaced with 20 µL assay buffer/well (140 mM NaCl, 5 mM KCl, 2 mM CaCl2, 1 mM MgCl2, 5 mM HEPES-Na, 20 mM glucose, pH 7.3, 340 mOsm). […] Baseline fluorescence (F0) was recorded for 5 s, after which 7 µL VOC buffer (140 mM NaCl, 5 mM KCl, 2 mM CaCl2, 1 mM MgCl2, 5 mM HEPES-Na, 31 mM glucose, 0.1% DMSO, pH 7.3, 340 mOsm) was injected into each well in one row and the fluorescence response was recorded for an additional 30 s, at a rate of one read/sec. VOC solutions (VOC buffer with 4× concentration of the final measured VOC concentration, 9 µL/well was injected) were measured on the same wells in a second round with the same protocol. Each individual concentration of a specific VOC sample was recorded in three wells for the same cell line on the same microplate. The raw data were exported in xls file format, F0 and FMAX values, and the fluorescence intensity changes (∆F) were calculated in Excel (Microsoft) (Supplementary file Data summary.xlsx) using the following equation: ΔF=FMAX-F0/F0 (see also Fig. 1C). On each plate, we recorded the response of each cell line to 50 µM VUAA1. The average of these ∆F values of each cell line were used to calculate the VUAA1-normalized values for the rest of the plate, by dividing VOC response ∆F values by the average VUAA1 response ∆F value of the corresponding OR cell line. Each VOC-OR combination was measured three times as technical replicates. […] The average of these replicates were used as one ∆F and VUAA1-normalized ∆F in the following analysis.
(§4) In the next rows we tested the reference VOCs (or other VOCs known to activate the corresponding cell lines), in order to test if all cell lines are responsive. The remaining rows were used to test VOCs with unknown effect.
(§5) The recorded FMAX, F0, ∆F, VUAA1-normalized ∆F values, as well as the OR name, the name of the tested sample, and the final concentration for each well were copied into supplementary file Data summary.xlsx, that was used to summarize all the plates recorded. Here, the averages of the measurements were calculated for each receptor-VOC-concentration combination.

Drosophila OR71a = molecular target: T2, Drosophila OR71a (Drosophila melanogaster, UniProt Q9VUK5); assay: Calcium ion fluorescence (GCaMP6) assay, OR71a stable HEK293 cell line; format: cell-based; settings: for OR71a Average response (VUAA1-normalized): 50 μM VUAA1 = 1; for activation at 1 µM / activation at 10 µM / activation at 100 µM: HEK293, read-out: OR71a response (VUAA1-normalized response); for Average response: OR71a cell line, VUAA1-normalized response, mean of biological replicates; for DF norm AVERAGE OR71a: normalized fluorescence change, values below 0.05 threshold given as 0
T2 construct: expressed in transfected cells
T2 sequence (Q9VUK5 1-378): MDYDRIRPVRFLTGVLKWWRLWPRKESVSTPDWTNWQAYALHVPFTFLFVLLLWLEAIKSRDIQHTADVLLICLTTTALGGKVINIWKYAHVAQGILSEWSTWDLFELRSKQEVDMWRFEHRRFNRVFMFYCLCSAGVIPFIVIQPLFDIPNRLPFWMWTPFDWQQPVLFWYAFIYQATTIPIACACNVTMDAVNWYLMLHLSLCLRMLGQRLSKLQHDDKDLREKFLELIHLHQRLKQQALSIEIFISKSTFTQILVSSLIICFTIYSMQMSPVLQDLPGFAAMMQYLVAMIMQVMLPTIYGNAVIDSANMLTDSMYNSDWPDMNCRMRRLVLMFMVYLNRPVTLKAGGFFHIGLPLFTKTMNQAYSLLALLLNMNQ
T2 sequence (Q9VNB5 1-486 partner): T1 sequence (Q9VNB5 1-486 partner)
Method: as §1, §2, §3, §4, §5

[1] = HEK293, read-out: OR47a response (VUAA1-normalized response)
[2] = HEK293, read-out: OR47a Average response (VUAA1-normalized)

SMILES	activation at 1 µM (Drosophila OR47a; [1])	activation at 10 µM (Drosophila OR47a; [1])	activation at 100 µM (Drosophila OR47a; [1])	Average response (Drosophila OR47a; odorant cc. 1 µM)	Average response (Drosophila OR47a; odorant cc. 10 µM)	Average response (Drosophila OR47a; odorant cc. 100 µM)	DF norm AVERAGE OR47a (Drosophila OR47a; concentration 1)	DF norm AVERAGE OR47a (Drosophila OR47a; concentration 10)	DF norm AVERAGE OR47a (Drosophila OR47a; concentration 100)	activation at 1 µM (Drosophila OR71a)	activation at 10 µM (Drosophila OR71a)	activation at 100 µM (Drosophila OR71a)	Average response (Drosophila OR71a; cc. 1 µM)	Average response (Drosophila OR71a; cc. 10 µM)	Average response (Drosophila OR71a; cc. 100 µM)	DF norm AVERAGE OR71a (Drosophila OR71a; concentration 1)	DF norm AVERAGE OR71a (Drosophila OR71a; concentration 10)	DF norm AVERAGE OR71a (Drosophila OR71a; concentration 100)	activation at 1 µM (Drosophila OR47a; [2])	activation at 10 µM (Drosophila OR47a; [2])	also measured
CCCCCC(C)O (stereo not drawn) [2-heptanol]	0%	6%	0%	0.00	0.06	0.00	0	0.05999	0	0%	0%	16%	0.00	0.04	0.16	0	0	0.1631	–	–	OR71a Average response (VUAA1-normalized) (Drosophila OR71a; 1 μM VOC): 0.00; OR71a Average response (VUAA1-normalized) (Drosophila OR71a; 10 μM VOC): 0.04; OR71a Average response (VUAA1-normalized) (Drosophila OR71a; 100 μM VOC): 0.16
CCCCCC(C)=O [2-heptanone]	0%	19%	46%	0.03	0.19	0.46	0	0.1895	0.4589	8%	12%	5%	0.08	0.12	0.05	0.08012	0.1157	0.05175	3%	19%	activation at 100 µM (Drosophila OR47a; [2]): 46%
CCCCC(C)O (stereo not drawn) [2-hexanol]	0%	0%	5%	0.04	0.00	0.05	0	0	0.05091	0%	0%	0%	0.00	0.00	0.0351	0	0	0	–	–	–
CCCCC(C)=O [2-hexanone]	0%	0%	16%	0.0368	0.00	0.16	0	0	0.1643	8%	0%	0%	0.08	0.00	0.00	0.08158	0	0	4%	0%	activation at 100 µM (Drosophila OR47a; [2]): 16%
CCCCCCCCC(CO)CCCCCC (stereo not drawn) [2-hexyl-1-decanol]	0%	0%	0%	0.00	0.05	0.00	0	0	0	0%	0%	0%	0.00	0.00	0.00	0	0	0	–	–	–
CC1=CCC2C(C1)C2(C)C (stereo not drawn) [3-carene]	0%	0%	0%	0.00	0.00	0.03	0	0	0	0%	0%	0%	0.00	0.00	0.00	0	0	0	–	–	–
CCCC(O)CC (stereo not drawn) [3-hexanol]	0%	0%	11%	0.00	0.00	0.11	0	0	0.1087	0%	6%	0%	0.00	0.06	0.0155	0	0.06016	0	0%	0%	activation at 100 µM (Drosophila OR47a; [2]): 11%
Cc1cccc(O)c1 [3-methylphenol]	0%	0%	0%	0.00	0.00	0.00	0	0	0	0%	0%	0%	0.03	0.0152	0.0133	0	0	0	–	–	–
